# Test system: MIA PaCa-2 cells
# Experiment: Bru-seq analysis for nascent RNA synthesis (log2FC of genes, GSEA gene sets)
# Type: cell-based, human
# Conditions: 4 h
# [1] = GO_NUCLEAR_NUCLEOSOME, upregulated
# [2] = GO_ORGANIC_HYDROXY_COMPOUND_BIOSYNTHETIC_PROCESS, upregulated
# [3] = GO_PROTEIN_DNA_COMPLEX, upregulated
# [4] = GO_REGULATION_OF_ENDOPLASMIC_RETICULUM_STRESS_INDUCED_INTRINSIC_APOPTOTIC_SIGNALING_PATHWAY, upregulated
# [5] = GO_REGULATION_OF_STEROID_BIOSYNTHETIC_PROCESS, upregulated
# [6] = GO_REGULATION_OF_STEROID_METABOLIC_PROCESS, upregulated
# [7] = GO_RIBOSOMAL_SUBUNIT, upregulated
# [8] = GO_STEROID_BIOSYNTHETIC_PROCESS, upregulated
# [9] = GO_STEROID_METABOLIC_PROCESS, upregulated
# [10] = GO_STEROL_BIOSYNTHETIC_PROCESS, upregulated
# [11] = GO_STEROL_METABOLIC_PROCESS, upregulated
# [12] = GO_STRUCTURAL_CONSTITUENT_OF_RIBOSOME, upregulated
# [13] = HAMAI_APOPTOSIS_VIA_TRAIL_UP, C2, downregulated
# [14] = HUTTMANN_B_CLL_POOR_SURVIVAL_DN, C2, downregulated
# [15] = KEGG_ACUTE_MYELOID_LEUKEMIA, upregulated
# [16] = KEGG_ADIPOCYTOKINE_SIGNALING_PATHWAY, upregulated
# [17] = KEGG_BIOSYNTHESIS_OF_UNSATURATED_FATTY_ACIDS, upregulated
# [18] = KEGG_CARDIAC_MUSCLE_CONTRACTION, upregulated
# [19] = KEGG_ENDOMETRIAL_CANCER, upregulated
# [20] = KEGG_FC_EPSILON_RI_SIGNALING_PATHWAY, upregulated
# [21] = KEGG_GLYCOLYSIS_GLUCONEOGENESIS, upregulated
# [22] = KEGG_INSULIN_SIGNALING_PATHWAY, upregulated
# [23] = KEGG_LONG_TERM_DEPRESSION, upregulated
# [24] = KEGG_MTOR_SIGNALING_PATHWAY, upregulated
# [25] = KEGG_NON_SMALL_CELL_LUNG_CANCER, upregulated
# [26] = KEGG_OXIDATIVE_PHOSPHORYLATION, upregulated
# [27] = KEGG_PARKINSONS_DISEASE, upregulated
# [28] = KEGG_PORPHYRIN_AND_CHLOROPHYLL_METABOLISM, upregulated
# [29] = KEGG_PPAR_SIGNALING_PATHWAY, upregulated
# [30] = KEGG_PROGESTERONE_MEDIATED_OOCYTE_MATURATION, upregulated
# [31] = KEGG_PROSTATE_CANCER, upregulated
# [32] = KEGG_RENAL_CELL_CARCINOMA, upregulated
# [33] = KEGG_SNARE_INTERACTIONS_IN_VESICULAR_TRANSPORT, upregulated
# [34] = KEGG_SYSTEMIC_LUPUS_ERYTHEMATOSUS, upregulated
# [35] = KEGG_VEGF_SIGNALING_PATHWAY, upregulated
# [36] = KRCTCNNNNMANAGC_UNKNOWN, TFBT, upregulated
# [37] = MILI_PSEUDOPODIA_HAPTOTAXIS_UP, C2, downregulated
# [38] = NIKOLSKY_BREAST_CANCER_8Q12_Q22_AMPLICON, C2, downregulated
smiles,measurement,setting,value
"Cc1cc(NC(=O)c2cnc(N3CCNCC3)cn2)c2ncccc2c1 [J28, N-(6-methylquinolin-8-yl)-5-(piperazin-1-yl)pyrazine-2-carboxamide]",ES,[1],0.745
same,NES,[1],2.088
same,ES,[2],0.503
same,NES,[2],1.959
same,ES,[3],0.554
same,NES,[3],2.251
same,ES,[4],0.678
same,NES,[4],2.024
same,ES,[5],0.710
same,NES,[5],2.097
same,ES,[6],0.615
same,NES,[6],2.031
same,ES,[7],0.469
same,NES,[7],1.976
same,ES,[8],0.605
same,NES,[8],2.176
same,ES,[9],0.523
same,NES,[9],2.100
same,ES,[10],0.757
same,NES,[10],2.428
same,ES,[11],0.651
same,NES,[11],2.434
same,ES,[12],0.452
same,NES,[12],1.990
same,log2FC,"GPR135, downregulated protein-coding gene",−1.08
same,log2FC,"GRIN2C, downregulated protein-coding gene",−0.95
same,ES,[13],−0.508
same,NES,[13],−2.848
same,ES,"HEB_Q6, TFBT, upregulated",0.415
same,NES,"HEB_Q6, TFBT, upregulated",1.688
same,log2FC,"HRH4, downregulated protein-coding gene",−0.86
same,ES,[14],−0.605
same,NES,[14],−2.158
same,log2FC,"IFT80, downregulated protein-coding gene",−1.12
same,ES,[15],0.524
same,NES,[15],1.872
same,ES,[16],0.429
same,NES,[16],1.493
same,ES,[17],0.555
same,NES,[17],1.531
same,ES,[18],0.424
same,NES,[18],1.386
same,ES,[19],0.437
same,NES,[19],1.492
same,ES,[20],0.442
same,NES,[20],1.464
same,ES,[21],0.478
same,NES,[21],1.563
same,ES,[22],0.349
same,NES,[22],1.403
same,ES,[23],0.461
same,NES,[23],1.491
same,ES,"KEGG_LYSOSOME, upregulated",0.494
same,NES,"KEGG_LYSOSOME, upregulated",1.958
same,ES,[24],0.447
same,NES,[24],1.469
same,ES,[25],0.477
same,NES,[25],1.610
same,ES,[26],0.387
same,NES,[26],1.544
same,ES,[27],0.358
same,NES,[27],1.404
same,ES,"KEGG_PEROXISOME, upregulated",0.443
same,NES,"KEGG_PEROXISOME, upregulated",1.643
same,ES,[28],0.496
same,NES,[28],1.448
same,ES,[29],0.485
same,NES,[29],1.573
same,ES,[30],0.434
same,NES,[30],1.602
same,ES,[31],0.402
same,NES,[31],1.527
same,ES,[32],0.393
same,NES,[32],1.392
same,ES,"KEGG_RIBOSOME, upregulated",0.534
same,NES,"KEGG_RIBOSOME, upregulated",2.148
same,ES,[33],0.503
same,NES,[33],1.647
same,ES,[34],0.661
same,NES,[34],2.271
same,ES,[35],0.501
same,NES,[35],1.705
same,log2FC,"KLF10, downregulated protein-coding gene",−0.88
same,ES,[36],0.784
same,NES,[36],2.441
same,log2FC,"LINC01337, downregulated noncoding gene",−1.06
same,log2FC,"LINC01764, downregulated noncoding gene",−1.03
same,log2FC,"LINC01930, downregulated noncoding gene",−1.08
same,log2FC,"MALAT1, downregulated noncoding gene",−1.19
same,ES,"MAZR_01, TFBT, upregulated",0.380
same,NES,"MAZR_01, TFBT, upregulated",1.598
same,ES,[37],−0.420
same,NES,[37],−2.372
same,log2FC,"MTND2P28, downregulated noncoding gene",−0.97
same,ES,"NFE2_01, TFBT, upregulated",0.387
same,NES,"NFE2_01, TFBT, upregulated",1.630
same,ES,"NFY_Q6_01, TFBT, upregulated",0.370
same,NES,"NFY_Q6_01, TFBT, upregulated",1.617
same,ES,[38],−0.499
same,NES,[38],−2.099
same,ES,"NRF2_01, TFBT, upregulated",0.356
same,NES,"NRF2_01, TFBT, upregulated",1.597

# From US20220081412A1, “QUINOLINYL-PYRAZINE-CARBOXAMIDE COMPOUNDS AND USES THEREOF” (The Regents of the University of Michigan, priority 2018, published 2022)
